Results: EP0359821A1, “METHOD OF STERILIZING PLANT ANTHERS” (priority 1988, dated 1989)
Where two headings read alike, the source gives them in different places.

Columns and labels:
[1] = tested on: Winterweizens Sorte Mironovskaya 808; assay: Field trial of gametocidal activity (anther sterilisation), winter wheat; assay type: in vivo, Weizen; conditions: 2% aqueous emulsion, 20 kg/ha; for response vs control in vivo at 20000 g/ha: control = 100, read-out: Prozentsatz des Ansetzens bei freier Bestäubung
[2] = tested on: Sommerweizen Sorte Moskovskaya 35; assay: Field trial of gametocidal activity, spring wheat; assay type: in vivo, Weizen; conditions: 1% aqueous emulsion
[3] = tested on: Diploider Roggen Sorte Chulpan; assay: Field trial of gametocidal activity, diploid rye Chulpan; assay type: in vivo; conditions: single compounds, 1% aqueous emulsion, 10 kg/ha; for Anzahl von Körnern der Ähre bei freier Bestäubung / Anzahl von Körnern der Ähre im Isolator / percent sterility at 10000 g/ha: V. or VI. period; for percent sterility at 10000 g/ha: read-out: Prozentsatz der Sterilität
From the text: Bei Weizen und Tritikale werden Einzelisolatoren verwendet.
Pflanzen von diploidem Roggen Sorte Chulpan werden in der V. oder VI.
Der Verbrauch an Sterilisationsmitteln beträgt 10 kg/ha.

in vivo = conditions: mouse, LD50, weisse Mäuse
[4] = tested on: Hirse Sorte K-9693 Kormovoe 1; assay: Field trial of gametocidal activity, millet K-9693 Kormovoe 1; conditions: 1% aqueous emulsion, 10 kg/ha
[5] = tested on: Tetraploider Roggen Sorte Belta; assay: Field trial of gametocidal activity, tetraploid rye Belta; assay type: in vivo; conditions: 1% aqueous emulsion, 10 kg/ha; for response vs control in vivo at 10000 g/ha: control = 100, read-out: Prozentsatz des Ansetzens bei freier Bestäubung
[6] = tested on: Hirse Sorte Mironovskoe 94; assay: Field trial of gametocidal activity, millet Mironovskoe 94; assay type: in vivo; conditions: 1% aqueous emulsion, 10 kg/ha
[7] = tested on: Diploider Roggen Sorte Gibrid 340/65; assay: Field trial of gametocidal activity, diploid rye Gibrid 340/65; conditions: Gibrid 340/65 (text: 312/65), 1% aqueous emulsion, 10 kg/ha; for Anzahl von Körnern der Ähre bei freier Bestäubung / Anzahl von Körnern der Ähre im Isolator / Prozentsatz der Sterilität: V. and VI. periods; for Prozentsatz des Ansetzens bei freier Bestäubung: control = 100
[8] = V. or VI. period of organogenesis
[9] = control = 100, read-out: Prozentsatz des Ansetzens bei freier Bestäubung
[10] = read-out: Prozentsatz des Ansetzens bei freier Bestäubung, Chulpan, control = 100
[11] = V. or VI. period of organogenesis, read-out: Prozentsatz der Sterilität
[12] = V. or VI. period, read-out: Prozentsatz der Sterilität
[13] = V. or VI. period, listed as Beispiel 7I

## OCC(O)CSc1cccc(Cl)c1 (stereo not shown) [Beispiel 8, 3-(3'-Chlorphenylthio)-propandiol-1,2]
[1]; [8]
  Anzahl von Körnern der Ähre bei freier Bestäubung: 32,7
  Anzahl von Körnern der Ähre im Isolator: 2,6
[1]
  response vs control in vivo at 20000 g/ha: 80.7%
[2]; 10 kg/ha, V. period
  Anzahl von Körnern der Ähre bei freier Bestäubung: 24,6
  Anzahl von Körnern der Ähre im Isolator: 0,8
[2]; 10 kg/ha, V. period, read-out: Prozentsatz der Sterilität
  percent sterility at 10000 g/ha: 99.7%
[2]; [9]
  response vs control in vivo: 89.5%
[3]; Chulpan
  Anzahl von Körnern der Ähre bei freier Bestäubung: 52,1
  Anzahl von Körnern der Ähre im Isolator: 0,0
  percent sterility at 10000 g/ha: 100%
[3]; [10]
  response vs control in vivo at 10000 g/ha: 91.9%
In vivo
  LD50: 400 mg/kg
[4]; V. or VI. period
  Anzahl von Körnern der Rispe bei freier Bestäubung: 100,8
  Anzahl von Körnern der Rispe im Isolator: 0,0
  Prozentsatz der Sterilität: 100%
[4]; control = 100
  Prozentsatz des Ansetzens bei freier Bestäubung: 68,7%

## O=[N+]([O-])c1ccc(OCC(O)CO)cc1 (stereo not shown) [Beispiel 9, 3-(4'-Nitrophenoxy)-propandiol-I,2]
[1]; [8]
  Anzahl von Körnern der Ähre bei freier Bestäubung: 34,0
  Anzahl von Körnern der Ähre im Isolator: 4,8
[1]; [11]
  percent sterility at 20000 g/ha: 85.2%
[1]
  response vs control in vivo at 20000 g/ha: 83.9%
[3]; Chulpan
  Anzahl von Körnern der Ähre bei freier Bestäubung: 51,7
  Anzahl von Körnern der Ähre im Isolator: 0,7
  percent sterility at 10000 g/ha: 98.7%
[3]; [10]
  response vs control in vivo at 10000 g/ha: 91.2%
[5]; V. or VI. period
  Anzahl von Körnern der Ähre bei freier Bestäubung: 39,7
  Anzahl von Körnern der Ähre im Isolator: 0,0
[5]
  response vs control in vivo at 10000 g/ha: 89.6%
[6]; V. or VI. period
  Anzahl von Körnern der Rispe bei freier Bestäubung: 311,6
  Anzahl von Körnern der Rispe im Isolator: 0,0
[6]; [12]
  percent pollen sterility at 10000 g/ha: 100%
[6]; [9]
  response vs control in vivo at 10000 g/ha: 82.1%
In vivo
  LD50: 100 to 600 mg/kg
[7]
  Anzahl von Körnern der Ähre bei freier Bestäubung: 45,0
  Anzahl von Körnern der Ähre im Isolator: 0,0
  Prozentsatz der Sterilität: 100%
  Prozentsatz des Ansetzens bei freier Bestäubung: 84,1%

## Nc1ccc(C(=O)O)cc1 [Beispiel 38, Äthanolaminsalz der p-Aminobenzoesäure]
In vivo
  LD50: 2850 mg/kg
[7]
  Anzahl von Körnern der Ähre bei freier Bestäubung: 52,8
  Anzahl von Körnern der Ähre im Isolator: 3,2
  Prozentsatz der Sterilität: 93,4%
  Prozentsatz des Ansetzens bei freier Bestäubung: 97,8%

## Nc1ccc(O)c(C(=O)O)c1 [Beispiel 51, Äthanolaminsalz der 5-Aminosalizylsäure]
[3]; Chulpan
  Anzahl von Körnern der Ähre bei freier Bestäubung: 55,6
  Anzahl von Körnern der Ähre im Isolator: 2,1
  percent sterility at 10000 g/ha: 96%
[3]; [10]
  response vs control in vivo at 10000 g/ha: 92.8%
[5]; V. or VI. period
  Anzahl von Körnern der Ähre im Isolator: I,I
[5]; [12]
  percent sterility at 10000 g/ha: 97.3%
[5]
  response vs control in vivo at 10000 g/ha: 99.5%
In vivo
  LD50: 2400 mg/kg

## CCC(CO)(CO)CBr [Beispiel 53, monobromsubstituiertem Etriol]
[3]; Chulpan
  Anzahl von Körnern der Ähre bei freier Bestäubung: 55,8
  Anzahl von Körnern der Ähre im Isolator: 4,8
  percent sterility at 10000 g/ha: 91.8%
[3]; Chulpan, control = 100, read-out: Prozentsatz des Ansetzens bei freier Bestäubung
  response vs control in vivo at 10000 g/ha: 98.4%

## O=C(COc1cc(F)c(Cl)cc1Cl)OCCCl [Beispiel I0, β -Chloräthylester der 2,4-Dichlor-5-fluornhenoxyessig-säure]
[1]; [8]
  Anzahl von Körnern der Ähre im Isolator: 0,6
[1]
  response vs control in vivo at 20000 g/ha: 74.3%
In vivo
  LD50: 500 mg/kg

## O=C(O)c1ccccc1F [Beispiel I4, Monoäthanolaminsalz der Orthofluorbenzoesäure]
[1]; [8]
  Anzahl von Körnern der Ähre bei freier Bestäubung: 36,2
  Anzahl von Körnern der Ähre im Isolator: 5,3
[1]; [11]
  pest or weed control at 20000 g/ha: 85.9%
[1]
  response vs control in vivo at 20000 g/ha: 89.3%
[3]; Chulpan, listed as Beispiel 56
  Anzahl von Körnern der Ähre bei freier Bestäubung: 56,2
  Anzahl von Körnern der Ähre im Isolator: 0,1
[3]; Chulpan, control = 100, listed as Beispiel 56
  Prozentsatz des Ansetzens bei freier Bestäubung: 99,1%
[5]; [13]
  Anzahl von Körnern der Ähre bei freier Bestäubung: 43,5
  Anzahl von Körnern der Ähre im Isolator: 0,0
[5]; control = 100, listed as Beispiel 7I
  Prozentsatz des Ansetzens bei freier Bestäubung: 98,2%
In vivo
  LD50: 700 mg/kg
